Source: patent US5284838A, “Use of 2,2-dimethylchroman-3-ol derivatives in the treatment of asthma” (Elf Sanofi, priority 1987, dated 1994)
Like-named read-outs stand apart in the source and are kept apart here.

How the values were obtained:
[1] = system: mice; assay: Acute toxicity on mice by oral administration; type: in vivo; conditions: 1000 mg/kg, 10 mice
[2] = system: Isolated Rat Portal Vein; assay: Isolated Rat Portal Vein: inhibition of spontaneous contractile activities; type: cell-based, Male Sprague Dawley rats; conditions: for IC50: Rattus norvegicus, 0.25 h; for times more active than Product A: relative to Product A, isolated rat portal vein
Procedure: Male Sprague Dawley rats (250-300 g) are stunned and then bled after their throats have been cut. The portal vein, ligated in situ at two points 15 mm apart, is isolated, cut longitudinally and then mounted vertically in an experimental cell containing a physiological solution, at 37° C., of the following composition (mmol/l): NaCl:137; KCl: 5.4; MgCl2 : 1.05; CaCl2 : 1.8; NaH2 PO4 : 1.2; NAHCO3 : 15.5; glucose: 11.5, into which a mixture of gases containing 95% of oxygen and 5% of carbon dioxide is bubbled.
The vein is subjected to a tension of 500 mg. After a period of stabilization (about 1 h 30 min), the spontaneous contractile activities are recorded with the aid of an isometric sensor. Each measurement is performed successively on 4 preparations.
The results are expressed in the form of the molar concentration which causes a 50 per cent inhibition of the spontaneous contractile activities (IC50).

[3] = system: Guinea-pig Papillary Muscle; assay: Guinea-pig Papillary Muscle: ventricular action potential; type: cell-based, Male Albino Charles River guinea-pigs; conditions: Cavia porcellus, 0.5 h; 36° C., 60 beats per minute, 30 minutes of perfusion per concentration; read-out: Duration of the action potential: IC50 (50 per cent reduction in the duration of the AP)
Procedure: Male Albino Charles River guinea-pigs (300-400 g) are stunned and then bled after their throats have been cut. The heart is isolated and opened and the right papillary muscle is excised and then kept alive in an experimental cell containing a physiological solution at 36° C. (composition described above).
The preparation is stimulated with the aid of a bipolar electrode connected to a stimulator (frequency=60 beats per minute). The ventricular action potential is measured by the conventional microelectrode method. The characteristic parameters were measured on the action potentials (AP) before and after the introduction of the test product at 3 successive increasing concentrations (30 minutes of perfusion per concentration). The concentration which produces a 50 per cent reduction in the duration of the AP is indicated (IC50).

[4] = system: Vigilant Spontaneously Hypertensive Rats (SHR); assay: Antihypertensive Activity on Vigilant Spontaneously Hypertensive Rats (SHR); type: in vivo, male SHR (of the Wistar strain) rats; conditions: for duration of action compared with Product A: p.o.
Procedure: The experiment is performed on male SHR (of the Wistar strain) aged between 11 and 12 weeks; under pentobarbital anesthesia, a catheter is implanted in a carotid artery on the day before the experiment. In the experiment, the diastolic pressure (DP) and systolic pressure (SP) of the vigilant animals are recorded continuously 1 hour before and up to 2 hours after administration of the product. The heart rate (HR) is determined from the pulse pressure and recorded continuously for the same time.
The products were administered orally in a volume of 2 ml per 100 g of body weight after suspension in a 5% aqueous solution of gum arabic.

[5] = system: Vigilant Dogs; assay: Antiarrhythmic Activity on Vigilant Dogs; type: in vivo; conditions: orally
Procedure: The method used is that described by Dupuis et al. (Br. J. Pharmacol., 1976, 58, p. 409), in which an acute infarction is caused by the insertion of a copper spiral into the coronary circulation, with the thorax closed off. The electrocardiogram is measured by telemetry and the extrasystoles are analyzed and counted automatically while the animal is being monitored by an internal television circuit. The products were administered orally to animals presenting at least 50 percent of extrasystoles.

[6] = 37° C., 15 min per concentration, read-out: IC50 of the spontaneous contractile activities of isolated rat portal vein
[7] = unit inferred, read-out: IC50 values equal to or less than (isolated rat portal vein)

SMILES | IC50 [2, 6] [nM] | IC50 [3] [nM] | Maximum decrease in mean blood pressure (±s.e.) ([4]; 0.03 mg/kg p.o.) | Maximum decrease in mean blood pressure (±s.e.) ([4]; 0.10 mg/kg p.o.) | IC50 [2, 7] [nM] | times more active than Product A [2] | other results
CC1(C)Oc2ccc(C#N)cc2[C@@H](N2CCCC2=O)[C@@H]1O (relative stereo) [Product A, trans-6-Cyano-4-(2-oxopyrrolidin-1-yl)-2,2-dimethylchroman-3-ol, reference compound] | 68 | 16000 | 16 ± 5 mm of mercury | 30 ± 10 mm of mercury | – | – | acute toxicity: survival / death of the animals [1]: all 10 animals died
CC1(C)Oc2ccc(C#N)cc2[C@@H](n2ccccc2=O)[C@@H]1O (relative stereo) [SR 44 709, trans-6-Cyano-4-(I,2-dihydro-2-oxopyrid-1-yl)2,2-dimethylchroman-3-ol] | 90 | 20000 | – | 39 ± 12 mm of mercury | – | – | acute toxicity: survival / death of the animals [1]: all the animals survived; Maximum decrease in mean blood pressure (±s.e.) ([4]; 0.06 mg/kg p.o.): 21 ± 5 mm of mercury; antiarrhythmic activity (reducing the number of extrasystoles or restoring a sinus rhythm) ([5]; 1 mg/kg): substantial antiarrhythmic activity
CC1(C)Oc2ccc(C#N)cc2[C@@H](n2ncccc2=O)[C@@H]1O (relative stereo) [SR 44 758, trans-6-Cyano-4-(1,6-dihydro-6-oxopyridazin-1-yl)-2,2-dimethylchroman-3-ol] | 130 | – | 12 ± 2 mm of mercury | 33 ± 5 mm of mercury | – | – | –
CC1(C)Oc2ccc(C#N)cc2[C@@H](n2ccc(O)cc2=O)[C@@H]1O (relative stereo) [SR 44 793, trans-6-Cyano-4-(I,2-dihydro-4-hydroxy-2-oxopyrid-1-yl)-2,2-dimethylchroman-3-ol] | 34 | 2700 | 22 ± 2 mm of mercury | 50 ± 9 mm of mercury | ≤ 34 | at least 5 times | Maximum decrease in mean blood pressure (±s.e.) ([4]; 0.06 mg/kg p.o.): 26 ± 3 mm of mercury; duration of action compared with Product A [4]: longer duration of action than Product A; antiarrhythmic activity (reducing the number of extrasystoles or restoring a sinus rhythm) ([5]; between 0.1 and 0.5 mg/kg): substantial antiarrhythmic activity
CC1(C)Oc2ccc(C#N)cc2[C@@H](n2nc(O)ccc2=O)[C@@H]1O (relative stereo) [SR 44 994, trans-6-Cyano-4-(I,6-dihydro-3-hydroxy-6-oxopyridazin-1-yl)-2,2-dimethylchroman-3-ol] | 9 | 4000 | 14 ± 0 mm of mercury | 37 ± 4 mm of mercury | ≤ 34 | at least 5 times | duration of action compared with Product A [4]: longer duration of action than Product A
CC1(C)Oc2ccc(C#N)cc2[C@@H](n2ccc(Cl)cc2=O)[C@@H]1O (relative stereo) [SR 45 012] | 26 | – | – | – | ≤ 34 | at least 5 times | –
CC1(C)Oc2ccc(C#N)cc2[C@@H](n2ccncc2=O)[C@@H]1O (relative stereo) [SR 45 067] | 77 | – | – | – | – | – | –
Cc1ccn([C@@H]2c3cc(C#N)ccc3OC(C)(C)[C@H]2O)c(=O)c1 (relative stereo) [SR 45 135] | 80 | – | – | – | – | – | –
Cc1cc(O)nn([C@@H]2c3cc(C#N)ccc3OC(C)(C)[C@H]2O)c1=O (relative stereo) [SR 45 209, trans-6-Cyano-4-(I,6-dihydro-3-hydroxy-5-methyl-6-oxopyridazin-1-yl)-2,2-dimethylchroman-3-ol] | 58 | – | – | – | – | – | –
Cc1cc(=O)n([C@@H]2c3cc(C#N)ccc3OC(C)(C)[C@H]2O)nc1O (relative stereo) [SR 45 218, trans-6-Cyano-4-(I,6-dihydro-3-hydroxy-4-methyl-6-oxopyridazin-1-yl)-2,2-dimethylchroman-3-ol] | 20 | – | – | – | ≤ 34 | at least 5 times | –
Cc1ccc(=O)n([C@@H]2c3cc(C#N)ccc3OC(C)(C)[C@H]2O)n1 (relative stereo) [SR 45 225, trans-6-Cyano-4-(I,6-dihydro-3-methyl-6-oxopyridazin-1-yl)-2,2-dimethylchroman-3-ol] | 88 | – | – | – | – | – | –
CC1(C)Oc2ccc(C#N)cc2[C@@H](n2ccc(F)cc2=O)[C@@H]1O (relative stereo) [SR 45 311, trans-6-Cyano-4-(1,2-dihydro-4-fluoro-2-oxopyrid-1-yl)-2,2-dimethylchroman-3-ol] | 50 | – | – | – | – | – | –
